Measurements reported in patent publication US10112937B2, “P2X7 modulators and methods of use” (Janssen Pharmaceutica NV, priority 2013, dated 2018).

Molecular target: human P2X7 (Homo sapiens (Human), UniProt Q99572)
Experiment: P2X7 antagonism in human PBMCs (IL-1β release after LPS + Bz-ATP, ELISA)
Assay type: cell-based
Details: 10 μM test compound, human PBMCs, LPS + Bz-ATP
Protocol: P2X7 Antagonism in Human Peripheral Blood Mononuclear Cells (PBMCs) and Human Whole Blood.
Human blood was collected using a blood donor program. PBMCs were isolated from blood using a Ficoll density gradient technique. Briefly, blood was laid on Ficoll solution and centrifuged at RT for 20 minutes at 2000 rpm. The buffy layer (between red blood cells and plasma) was carefully collected by aspiration, washed with PBS and centrifuged again at 1500 rpm for 15 minutes. The resulting cell pellet was washed and plated on 96 well-plates for experiments. For the Human Whole Blood experiments, 150 μl of human blood was platted on 96 well-plates. Lipopolysaccharide (LPS) (30 ng/ml) was added to each well and incubated for 1 hour. Test compounds were then added and incubated for 30 minutes. The P2X7 agonist, 2′(3′)-O-(4-benzoylbenzoyl) adenosine 5′ triphosphate (Bz-ATP) was then added at a final concentration of 0.5 mM (PBMC) or 1 mM (blood). Cells were incubated for an additional 1.5 hours. At that point, supernatant was collected and stored for IL-1β assay using manufacturer's protocol for enzyme-linked immunosorbent assay (ELISA). Data was expressed as percent control, where control is defined as the difference in IL-1β release in LPS+Bz-ATP samples and LPS only samples. Data was plotted as response (% control) versus concentration to generate IC50 values. […] Data are analyzed and graphed on Graphpad Prism 5. For analysis, each concentration point is averaged from triplicate values and the averaged values are plotted on Graphpad Prism.

Sequence of human P2X7 (Q99572 whole entry): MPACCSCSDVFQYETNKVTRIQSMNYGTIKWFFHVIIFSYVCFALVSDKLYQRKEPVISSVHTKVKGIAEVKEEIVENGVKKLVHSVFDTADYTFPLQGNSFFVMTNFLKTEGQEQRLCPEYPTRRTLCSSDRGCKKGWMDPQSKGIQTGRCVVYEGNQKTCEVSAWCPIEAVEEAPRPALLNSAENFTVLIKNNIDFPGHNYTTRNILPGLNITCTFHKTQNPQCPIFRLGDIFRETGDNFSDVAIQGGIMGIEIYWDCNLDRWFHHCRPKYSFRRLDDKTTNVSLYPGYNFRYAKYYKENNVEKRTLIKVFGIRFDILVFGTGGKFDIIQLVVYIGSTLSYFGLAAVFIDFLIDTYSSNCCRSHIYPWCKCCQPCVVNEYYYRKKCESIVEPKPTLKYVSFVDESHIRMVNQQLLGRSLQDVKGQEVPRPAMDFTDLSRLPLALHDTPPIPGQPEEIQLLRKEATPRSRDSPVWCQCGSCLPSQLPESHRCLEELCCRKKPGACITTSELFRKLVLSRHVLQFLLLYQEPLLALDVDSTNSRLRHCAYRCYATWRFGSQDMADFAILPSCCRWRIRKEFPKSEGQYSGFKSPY

| Structure (SMILES) | PBMC 10 μM (% control) |
| --- | --- |
| CC(C)n1ccc(-n2nnc3c2CCN(C(=O)c2cccc(C(F)(F)F)c2Cl)[C@H]3C)n1 [Example 413, (S)-(2-chloro-3-(trifluoromethyl)phenyl)(1-(1-isopropyl-1H-pyrazol-3-yl)-4-methyl-6,7-dihydro-1H-[1,2,3]triazolo[4,5-c]pyridin-5(4H)-yl)methanone] | 68.5 % control |

Same assay, conditions: human PBMCs, test compound 1 μM

| Structure (SMILES) | PBMC 1 μM (% control) |
| --- | --- |
| Cn1nc2c(c1-c1ccc(F)cc1)CCN(C(=O)c1cccc(Cl)c1Cl)C2 [Example 326, (2,3-dichlorophenyl)(3-(4-fluorophenyl)-2-methyl-4,5-dihydro-2H-pyrazolo[3,4-c]pyridin-6(7H)-yl)methanone] | 92.0 % control |
| O=C(c1cccc(Cl)c1Cl)N1CCc2c(-c3ccccc3)n[nH]c2C1 [Example 100, 6-[(2,3-Dichlorophenyl)carbonyl]-3-phenyl-4,5,6,7-tetrahydro-1H-pyrazolo[3,4-c]pyridine] | 9.2 % control |
| CC1c2ncn(-c3ccc(F)cc3)c2CCN1C(=O)c1cccc(C(F)(F)F)c1Cl (stereo not drawn) [Example 18, (2-Chloro-3-(trifluoromethyl)phenyl)(1-(4-fluorophenyl)-4-methyl-6,7-dihydro-1H-imidazo[4,5-c]pyridin-5(4H)-yl)methanone] | 5.3 % control |
| Cn1nc(-c2ccccc2)c2c1CN(C(=O)c1cccc(Cl)c1Cl)CC2 [Example 103, 6-[(2,3-Dichlorophenyl)carbonyl]-1-methyl-3-phenyl-4,5,6,7-tetrahydro-1H-pyrazolo[3,4-c]pyridine] | 56.0 % control |
| O=C(c1cccc(C(F)(F)F)c1Cl)N1C=Cc2c(ncn2-c2cnccn2)C1 [Example 54, 5-{[2-Chloro-3-(trifluoromethyl)phenyl]carbonyl}-1-pyrazin-2-yl-4,5-dihydro-1H-imidazo[4,5-c]pyridine] | 8.6 % control |

Same assay, conditions: human PBMCs, test compound 10 μM

| Structure (SMILES) | PBMC 10 μM (% control) |
| --- | --- |
| C[C@@H]1c2nnn(-c3ccn(C)n3)c2CCN1C(=O)c1cccc(C(F)(F)F)c1Cl (single isomer, unassigned) [Example 169, (R*)-(2-Chloro-3-(trifluoromethyl)phenyl)(4-methyl-1-(1-methyl-1H-pyrazol-3-yl)-6,7-dihydro-1H-[1,2,3]triazolo[4,5-c]pyridin-5(4H)-yl)methanone] | 95.0 % control |
| C[C@H]1c2nnn(-c3ncc(F)cn3)c2CCN1C(=O)c1cccc(C(F)(F)F)c1Cl (single isomer, unassigned) [Example 157, (S*)-(2-Chloro-3-(trifluoromethyl)phenyl)(1-(5-fluoropyrimidin-2-yl)-4-methyl-6,7-dihydro-1H-[1,2,3]triazolo[4,5-c]pyridin-5(4H)-yl)methanone] | −1.4 % control |
| Cc1c(C(=O)N2CCc3c(nnn3-c3cnccn3)C2)cccc1C(F)(F)F [Example 276, (2-methyl-3-(trifluoromethyl)phenyl)(1-(pyrazin-2-yl)-6,7-dihydro-1H-[1,2,3]triazolo[4,5-c]pyridin-5(4H)-yl)methanone] | −0.9 % control |
| Cc1c(C(=O)N2Cc3nnn(-c4ncc(F)cn4)c3C[C@H]2C)cccc1C(F)(F)F (single isomer, unassigned) [Example 207, (6R*)-1-(5-Fluoropyrimidin-2-yl)-6-methyl-5-{[2-methyl-3-(trifluoromethyl)phenyl]carbonyl}-4,5,6,7-tetrahydro-1H-[1,2,3]triazolo[4,5-c]pyridine] | 45.0 % control |
| Cc1c(C(=O)N2CCc3c(nnn3-c3ncccn3)C2C)cccc1C(F)(F)F (stereo not drawn) [Example 282, (4-methyl-1-(pyrimidin-2-yl)-6,7-dihydro-1H-[1,2,3]triazolo[4,5-c]pyridin-5(4H)-yl)(2-methyl-3-(trifluoromethyl)phenyl)methanone] | −5.5 % control |
| CC1Cc2c(nnn2-c2ccc(F)cc2)C(C)N1C(=O)c1cccc(Cl)c1Cl (stereo not drawn) [Example 242, (2,3-Dichlorophenyl)(1-(4-fluorophenyl)-4,6-dimethyl-6,7-dihydro-1H-[1,2,3]triazolo[4,5-c]pyridin-5(4H)-yl)methanone] | −3.4 % control |
| CC1c2nnn(-c3ncccn3)c2CCN1C(=O)c1cccc(C(F)(F)F)c1Cl (stereo not drawn) [Example 80, 5-{[2-Chloro-3-(trifluoromethyl)phenyl]carbonyl}-4-methyl-1-pyrimidin-2-yl-4,5,6,7-tetrahydro-1H-[1,2,3]triazolo[4,5-c]pyridine] | 4.6 % control |
| O=C(c1cccc(C(F)(F)F)c1Cl)N1CCc2c(ncn2-c2ccc(F)cn2)C1 [Example 315, (2-chloro-3-(trifluoromethyl)phenyl)(1-(5-fluoropyridin-2-yl)-6,7-dihydro-1H-imidazo[4,5-c]pyridin-5(4H)-yl)methanone] | 8.8 % control |
| CCOc1cccnc1-n1nnc2c1CCN(C(=O)c1cccc(C(F)(F)F)c1Cl)[C@@H]2C (single isomer, unassigned) [Example 316, (R*)-(2-chloro-3-(trifluoromethyl)phenyl)(1-(3-ethoxypyridin-2-yl)-4-methyl-6,7-dihydro-1H-[1,2,3]triazolo[4,5-c]pyridin-5(4H)-yl)methanone] | −9.6 % control |
| CC1Cc2c(nnn2-c2cnccn2)CN1C(=O)c1cccc(C(F)(F)F)c1Cl (stereo not drawn) [Example 209, 5-{[2-Chloro-3-(trifluoromethyl)phenyl]carbonyl}-6-methyl-1-pyrazin-2-yl-4,5,6,7-tetrahydro-1H-[1,2,3]triazolo[4,5-c]pyridine] | −1.0 % control |
| C[C@H]1Cc2c(nnn2-c2ccn[nH]2)[C@H](C)N1C(=O)c1cccc(C(F)(F)F)c1Cl [Example 319, (2-chloro-3-(trifluoromethyl)phenyl)((4S,6S)-4,6-dimethyl-1-(1H-pyrazol-5-yl)-6,7-dihydro-1H-[1,2,3]triazolo[4,5-c]pyridin-5(4H)-yl)methanone] | −6.8 % control |
| CC1Cc2c(nnn2-c2ncccc2F)CN1C(=O)c1cccc(C(F)(F)F)c1Cl (stereo not drawn) [Example 122, 5-{[2-Chloro-3-(trifluoromethyl)phenyl]carbonyl}-1-(3-fluoropyridin-2-yl)-6-methyl-4,5,6,7-tetrahydro-1H-[1,2,3]triazolo[4,5-c]pyridine] | 0.2 % control |
| Cc1c(C(=O)N2Cc3nnn(-c4ncc(F)cn4)c3CC2C)cccc1C(F)(F)F (stereo not drawn) [Example 206, 1-(5-Fluoropyrimidin-2-yl)-6-methyl-5-{[2-methyl-3-(trifluoromethyl)phenyl]carbonyl}-4,5,6,7-tetrahydro-1H-[1,2,3]triazolo[4,5-c]pyridine] | −1.0 % control |
| CC1c2ncn(-c3ccc(F)cc3)c2CCN1C(=O)c1cccc(C(F)(F)F)c1F (stereo not drawn) [Example 20, (2-Fluoro-3-(trifluoromethyl)phenyl)(1-(4-fluorophenyl)-4-methyl-6,7-dihydro-1H-imidazo[4,5-c]pyridin-5(4H)-yl)methanone] | 8.6 % control |
| O=C(c1ccc(Cl)cc1F)N1CCc2c(nnn2-c2ccccn2)C1 [Example 129, (4-Chloro-2-fluorophenyl)(1-(pyridin-2-yl)-6,7-dihydro-1H-[1,2,3]triazolo[4,5-c]pyridin-5(4H)-yl)methanone] | 8.4 % control |
